The source of these data is PMC8044911, “Research on the Interaction Mechanism Between α Mino-Phosphonate Derivative Q-R and Harpin-Binding Protein 1 in Tobacco (Nicotiana tabacum) Plants” (Frontiers in Microbiology, 2021).

Data set [1] has as its target T1, HrBP1 (harpin-binding protein 1) (Nicotiana tabacum, UniProt Q5QJB2).
T1 construct: full-length ORF (831 bp, 276 aa) in pET28a NdeI/XhoI, E. coli BL21(DE3), HisTrap purified, tag removal not described; about 30 kDa on SDS-PAGE, oligomer about 180 kDa by SEC
The experiment in a line: isothermal titration calorimetry. For orientation: In ITC the heat of successive injections is recorded.

Data set [2] addresses T1, HrBP1 (harpin-binding protein 1). In words: isothermal titration calorimetry. As to conditions: pH 7.5, 25 °C, 20 mM Tris-HCl, 100 mM NaCl.
Data set [3] deals with the molecule itself. In words: SEC; Superdex 200 10/300 GL, 4°C, 20 mM Tris-HCl, 100 mM NaCl, pH 7.5; mass standards 17-440 kDa; run without and after adding the small molecule Q-R (larger oligomer with Q-R). A general note: SEC sorts molecules by how far they enter the pores of the column.

As a reminder, the Kd is the constant that tells how readily two partners part at equilibrium. A higher Kd goes with a looser complex. `Cc1cccc2sc(N[C@@H](c3cccs3)P(=O)(Oc3ccccc3)Oc3ccccc3)nc12` [Q-R, (R)-diphenyl-1-(4-methylbenzothiazole-2-amino)-1-(thiphene-2-yl)-methylphosphonate] displayed a Kd in data set [1] of 1190 nM.

Consider `CCOP(=O)(OCC)C(Nc1nc2c(C)cccc2s1)c1ccccc1F` (stereo not drawn) [dufulin], for which the isothermal titration calorimetry result in data set [2] is “weak binding occurred between the dufulin and HrBP1 protein”.

B1: harpin-binding protein 1 (HrBP1) from Nicotiana tabacum (natural protein, UniProt Q5QJB2 1-276, looked up)
chain: MASLLQYSTLPLSNNHCSSSLPSLTCHLSKRSNRNTQKLLEKKKYHIKKSLICQSGIDELAFIELPGTKEAKAELIGSLKLKLLSAVSGLNRGLAASEEDLKKADAAAKELESCAGAVDLSADLDKLQGRWKLIYSSAFSGRTLGGSRPGPPTGRLLPITLGQVFQRIDVLSKDFDNIVELELGAPWPLPPAELTATLAHKFELIGSSTIKITFEKTTVKTTGILSQLPPFEVPRIPDQLRPPSNTGSGEFEVTYIDSDTRVTRGDRGELRVFVIS
notes: full-length gene of 831 bp, 276 amino acids, cloned between NdeI and XhoI of pET28a; tryptic peptides matched UniProt Q5QJB2; Removal of the tag is not described; also called HrBP1 recombinant protein; source: E. coli BL21(DE3), pET28a-HrBP1, purified (HisTrap column, desalting column, ultrafiltration)
Regarding B1, the binding result in data set [3] was “binds”.
